We go through four molecules from US20240229098A1, “BIOLUMINOGENIC ASSAY FOR DRUG-RESISTANCE BACTERIA DETECTION” (priority 2021, published 2024).

The target in assay [1] is T1, TEM-1 (Escherichia coli, UniProt P62593). The class given is biochemical. Set-up: made in house. The following applies: 10 μM probe, TEM-1 20 nM, 15 min, PBS pH 7.4, r.t. On the procedure: RLU indicates relative light units.
(§1) FIGS. 9A and 9B illustrates bioluminescent studies of D-Bluco and O-Bluco treating with various β-lactamases. 10 μM of Bluco, D-Bluco and O-Bluco incubated with 20 nM TEM-1 for 15 min in PBS at r.t. The bioluminescent signals for each compound was evaluated with or without the addition of TEM-1 by a luminator. […] The relative bioluminescent was calculated by removing background signal in PBS.
The bioluminescence emission from the released D-luciferin was measured. […] Also evaluated was whether there was interference between luciferase and β-lactamases in such dual enzyme reaction system.
The signal to background ratio for D-Bluco, O-Bluco, and Bluco was measured following the addition of the firefly luciferase (fLuc).
(§2) The caged luciferin probes were incubated with different concentrations of TEM-1 β-lactamase or IMP-1 carbapenemase (0.001-0.1 fmol) in PBS (pH=7.4) for 2 hr at 25° C. Then a mixture of luciferase (200 nM), ATP (2 mM), and MgCl2 (4 mM) was added, and bioluminescent signals were detected with a SpectraMax microplate reader or a luminator.

For assay [2], the system named is KPC-3, BlaC, TEM-1, IMP-1, AmpC, OXA-48. In words: Bioluminescence with panel of recombinant β-lactamases of clinical relevance. The class given is biochemical. The method, then:
as §1
Having confirmed the quenching ability of dabcyl to lower D-Bluco bioluminescent background emission, the activity of D-Bluco towards a variety of β-lactamases that are of clinical relevance in addition to TEM-1, including KPC-3, BlaC (Class A), AmpC (Class C), and OXA-48 (Class D) was then assessed. These enzymes were recombinantly expressed and purified. The bioluminescent signal was measured with an IVIS optical imaging system after treating D-Bluco with each enzyme for 2 hours at room temperature.
D-Bluco and O-Bluco were evaluated with various β-lactamase that of clinical relevance (FIG. 9B and 9C), including KPC-3, BlaC, TEM-1 (Class A), IMP-1 (Class B), AmpC (Class C), and OXA-48 (Class D). These enzymes were recombinantly expressed, purified as previously described^25. The bioluminescent signal was measured after incubating O-Bluco or D-Bluco with each enzyme at different concentrations for 2 hr at r.t. […] This compares favorably to previously reported fluorescent cephalosporin probe with a 1000-fold sensitivity improvement.^26
as §2

The target in another assay is T2, firefly luciferase (Photinus pyralis, UniProt P08659).
T2 construct: purchased Promega E1701
T2 sequence (P08659 whole entry): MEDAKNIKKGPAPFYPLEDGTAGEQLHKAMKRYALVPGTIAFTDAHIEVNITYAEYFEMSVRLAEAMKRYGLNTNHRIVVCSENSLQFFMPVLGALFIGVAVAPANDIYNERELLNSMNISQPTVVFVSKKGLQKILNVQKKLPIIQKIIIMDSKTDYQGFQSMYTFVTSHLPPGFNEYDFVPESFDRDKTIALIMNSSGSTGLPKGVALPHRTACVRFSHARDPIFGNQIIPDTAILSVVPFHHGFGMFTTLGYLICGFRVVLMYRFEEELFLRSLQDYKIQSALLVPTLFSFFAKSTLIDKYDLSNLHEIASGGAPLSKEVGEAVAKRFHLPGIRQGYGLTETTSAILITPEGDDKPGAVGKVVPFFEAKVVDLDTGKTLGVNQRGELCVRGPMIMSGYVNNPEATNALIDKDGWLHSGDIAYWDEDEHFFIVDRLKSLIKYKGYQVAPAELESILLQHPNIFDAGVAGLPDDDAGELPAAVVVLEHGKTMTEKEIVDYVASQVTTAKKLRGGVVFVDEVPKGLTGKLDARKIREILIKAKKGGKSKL
Put plainly: Background bioluminescence and oxidation of pro-luciferin probes on repeated addition of firefly luciferase. It is filed as biochemical. The note with it: for bioluminescence emission on additional batches of firefly luciferase: repeated firefly luciferase addition, no β-lactamase. On the procedure:
The initial bioluminescent background signal may come from residual D-luciferin present in the sample. High-performance liquid chromatography (HPLC) analysis could not detect any D-luciferin at a concentration below 0.1 μM. However, addition of firefly luciferase can efficiently detect and consume the residual free D-luciferin.
To further confirm the quenching effect of dabcyl in D-Bluco, another control, Am-Bluco, was prepared that is structurally similar to D-Bluco but with dabcyl replaced by a structure lacking the broad absorption between 400 and 530 nm (FIG. 1).

Assay [3] addresses T1, TEM-1. The note with it: D-luciferin 10 μM, TEM-1 10, 20, 50, 100 nM, 15 min, PBS pH 7.4.
Description: Bioluminescent signal was measured after the addition of bioluminescent reagent. Statistical significance was calculated using the unpaired two-tailed Student's t test (** p<0.01, **** p<0.0001).
The study was duplicated at room temperature with PBS (pH=7.4). Statistical significance was calculated using the unpaired two-tailed Student's t test (ns: not significant). The study was duplicated at room temperature with PBS (pH=7.4) as the buffer. Data were collected on a SpectraMax iD3 multimode microplate reader.
The next assay deals with IMP-1 (Serratia marcescens, UniProt P52699). The note with it: D-luciferin 10 μM, IMP-1 10, 20, 50, 100 nM, 15 min, PBS pH 7.4.
Chain of IMP-1 (P52699 19-246): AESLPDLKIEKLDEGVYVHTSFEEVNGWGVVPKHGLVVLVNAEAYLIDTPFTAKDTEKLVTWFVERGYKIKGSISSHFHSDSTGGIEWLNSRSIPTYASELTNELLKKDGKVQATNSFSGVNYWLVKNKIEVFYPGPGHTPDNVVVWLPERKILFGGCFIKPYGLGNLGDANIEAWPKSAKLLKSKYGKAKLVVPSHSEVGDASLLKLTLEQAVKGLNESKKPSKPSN
The target in assay [4] is T1, TEM-1. In words: Fluorescence turn-on of caged luciferin probes with recombinant TEM-1 bla. It is filed as biochemical. Details: made in house. On the procedure: D-Bluco was evaluated as to whether it could be processed by β-lactamase to release luciferin with one of the most prevalent Ambler class A β-lactamases, TEM-1.
Both probes were evaluated to with TEM-1 bla, one of the most abundant β-Lactamases for initial testing. The fluorescent signal of D-Bluco and O-Bluco incubated with 100 nM TEM-1 bla was examined with a microplate reader over a period of 40 minutes.
General information: All chemicals were purchased from commercial sources and used without further purification. […] QuantiLum Recombinant luciferase (catalog number E1701) was purchased from Promega (Madison, WI). Reaction progress was monitored by analytical thin layer chromatography (TLC) with 0.25 mm silica gel 60F plates and visualized with fluorescent indicator (254 nm). Flash column chromatography was conducted using silica gel (SiliaFlash for flash column, 40-63 μm, 60 Å). The ^1H and ^13C NMR spectra were acquired on a Varian 500 MHz or 600 MHz magnetic resonance spectrometer. Data for ^1H NMR spectra are reported as follows: chemical shifts are reported as δ in units of parts per million (ppm) relative to chloroform-d (δ 7.26, s); multiplicities are reported as follows: s (singlet), d (doublet), t (triplet), q (quartet), dd (doublet of doublets), m (multiplet), or br (broadened); coupling constants are reported as a J value in Hertz (Hz); and the number of protons (n) for a given resonance is indicated nH and based on the spectral integration values. High resolution mass spectra were obtained on a Thermo Exactive Orbitrap LC/MS. HPLC was performed on a Dionex HPLC System (Dionex Corporation) equipped with a GP50 gradient pump and an inline diode array UV-Vis detector. A reversed-phase C18 (Phenomenax, 5 μm, 10×250 mm or Dionex, 5 μm, 4.6×250 mm) column was used with a MeCN (B)/H2O (A) gradient mobile phase containing 0.1% trifluoroacetic acid at a flow of 1 or 3 mL/min for the analysis. Fluorescence Spectra and kinetic experiments were collected by a SpectraMax iD3 multimode microplate reader (Molecular Device, San Jose, CA).

T1 sequence (P62593 24-286 limits assumed): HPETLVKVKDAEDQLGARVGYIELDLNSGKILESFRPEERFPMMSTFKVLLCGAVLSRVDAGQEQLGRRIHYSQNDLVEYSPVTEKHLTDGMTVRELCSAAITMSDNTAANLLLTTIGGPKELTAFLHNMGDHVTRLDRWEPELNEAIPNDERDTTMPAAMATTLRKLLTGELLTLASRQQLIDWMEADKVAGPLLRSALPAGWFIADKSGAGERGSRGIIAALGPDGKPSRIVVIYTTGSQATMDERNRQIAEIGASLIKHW

Regarding `O=C(Cc1ccccc1)NC1C(=O)N2C(C(=O)O)=C(COc3ccc4nc(C5=N[C@H](C(=O)O)CS5)sc4c3)C[S+]([O-])C12` (stereo partly shown) [Bluco, reference compound], on TEM-1 [1], the “fold increase in bioluminescence emission upon TEM-1 treatment (turn-on ratio, signal with TEM-1 over signal without TEM-1)” value was 41.3 fold. Also, in assay [2] (each enzyme 2 hours at room temperature, IVIS imaging), the “bioluminescence triggered by β-lactamases TEM-1, KPC-3, BlaC, AmpC, OXA-48” value is recorded as “significant bioluminescence”. Further, at firefly luciferase, the “oxidation of probe incubated with firefly luciferase (mass spectrometry)” value is reported as “oxidized” and the “bioluminescence emission on additional batches of firefly luciferase” value is “still bioluminescence emission”.

Take `O=C(O)[C@H]1CSC(c2nc3ccc(O)cc3s2)=N1` [D-luciferin]: the “difference in bioluminescent signal of D-luciferin with or without TEM-1” value at TEM-1 [3] was “No significant differences”. Also, the “difference in bioluminescent signal of D-luciferin with or without IMP-1” value at IMP-1 was “No significant differences”.

Take `O=C(CCCCCNC(=O)c1ccc(NC(=O)c2ccccc2)cc1)NC1C(=O)N2C(C(=O)O)=C(COc3ccc4nc(C5=NC(C(=O)O)CS5)sc4c3)C[S+]([O-])C12` (stereo not shown) [Am-Bluco, 7-(6-(4-benzamidobenzamido)hexanamido)-3-(((2-(4-carboxy-4,5-dihydrothiazol-2-yl)benzo[d]thiazol-6-yl)oxy)methyl)-8-oxo-5-thia-1-azabicyclo[4.2.0]oct-2-ene-2-carboxylic acid 5-oxide]: at firefly luciferase, the “oxidation of probe incubated with firefly luciferase (mass spectrometry)” value is recorded as “oxidized” and the “bioluminescence emission on additional batches of firefly luciferase” value is on record as “produced bioluminescence emission upon each addition of firefly luciferase”.

Take `O=C(Cc1ccccc1)NC1C(=O)N2C(C(=O)O)=C(COc3ccc(COc4ccc5nc(C6=N[C@@H](C(=O)O)CS6)sc5c4)cc3)C3(CC3)SC12` (stereo partly drawn) [O-Bluco, 4-((4-(((2-((S)-4-carboxy-4,5-dihydrothiazol-2-yl)benzo[d]thiazol-6-yl)oxy)methyl)phenoxy)methyl)-7-oxo-8-(2-phenylacetamido)-2-thia-6-azaspiro[bicyclo[4.2.0]octane-3,1′-cyclopropan]-4-ene-5-carboxylic acid]: the “fold increase in bioluminescence emission upon TEM-1 treatment (turn-on ratio, signal with TEM-1 over signal without TEM-1)” value at TEM-1 [1] came to 100.5 fold. In assay [2], the “sensitivity improvement over previously reported fluorescent cephalosporin probes” value was 1000 fold. The “detection limits for the panel of enzymes” value in assay [2] (KPC-3, BlaC, TEM-1, IMP-1, AmpC, OXA-48, 2 hr at r.t.) was “within the femtomole range”. Further, the “fold increase in fluorescence emission in the presence of TEM-1” value at TEM-1 [4] (1 μM probe, TEM-1 100 nM, 40 min, PBS pH 7.4, r.t., excitation 330 nm, emission 530 nm) was found to be 32.7 fold. Also, the “course of fluorescence signal with TEM-1 bla” value on TEM-1 [4] (TEM-1 bla 100 nM, monitored over 40 minutes) is “gradual increase of signal”.
